From US11267812B2 (Mirati Therapeutics, Inc., priority 2016, dated 2022)
Where two headings read alike, the source gives them in different places.

Legend:
[1] = system: Phospho-ERK in NCI-H358 cells expressing KRas G12C; test: Cellular inhibition of KRas G12C by Phospho-ERK measurement in NCI-H358 cells; format: cell-based; settings: Homo sapiens, read-out: IC50 (pERK(Thr202/Tyr204) normalized with GAPDH)
Outline: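 After 8–12 h attachment, NCI-H358 cells were treated with compounds for 3 h (0.5% DMSO final), fixed, methanol-permeabilized and immunostained. pERK(Thr202/Tyr204) was read by infrared imaging and normalized to GAPDH as percent of DMSO control. IC50 came from a 4-parameter fit.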

[2] = target: KRas G12C (Homo sapiens, UniProt P01116, C118S/C51S/C80L/G12C); test: KRas G12C Modification Assay (LCMS detection of covalent adduct); format: binding; settings: 5 μM compound, 3 hours
Experimental: A 10 μL aliquot of each protein solution was then transferred to a 384 well microtiter plate. Initial compound stocks were generated at fifty times their desired final assay concentration in DMSO.
Exemplary compounds of Formula (I) were diluted 25-fold into K-Ras Assay Buffer to a final of two times their final concentration. A 10 μL aliquot of each diluted compound solution was then added to each of the protein solutions in the microtiter plate to initiate reaction. […] At each time point, the reactions were quenched with 20 μL of a 25 mM acetic acid solution. […] Once all reactions were quenched, the plates were heat sealed and the samples were injected into a LC/MS system for data acquisition.
Samples were injected in their liquid phase onto a C-3 reverse phase column to remove assay buffer and prepare the samples for mass spectrometer. The proteins were eluted from the column using an acetonitrile gradient and fed directly into the mass analyzer. Initial raw data analysis took place in Agilent MassHunter software immediately post data acquisition.
Raw data analysis of the intact protein was exclusively a deconvolution of the multiple charge states of each protein in solution using a maximum entropy deconvolution provided in Mass Hunter. To minimize complexity, only the data over limited mass ranges were considered for analysis, with a minimum of one Dalton mass step intervals. The heights of all masses identified during raw data analysis were exported to be further analyzed in Spotfire® data analysis software.
Final data analysis was a multistep process in the Spotfire® data analysis software package. Briefly, each protein mass was calculated as a percent of the total signal of that sample, that percentage was then normalized to the percentage of signal of the protein in the absence of reactive compounds. Those normalized signals were reported as normalized percent of control (POC). […] Key: “A”≤25% POC; “B”>25% POC≤50% POC; “C”>50% POC and ND=not determined.

[3] = NCI-H358 cells, 3 hours compound treatment

POC (normalized percent of control, KRas G12C modification) [2] | Structure (SMILES) | IC50 [1, 3] [µM] | IC50 ([1]; NCI-H358, 3 h) [µM]
C (“C”>50% POC) | C=CC(=O)N1CCN(c2nc(OC[C@@H]3CCN(C)C3)nc3c2CCN(c2cccc4ccccc24)C3)CC1CC#N (stereo partly drawn) [Example 177, 2-[4-[2-[[(3R)-1-methylpyrrolidin-3-yl]methoxy]-7-(1-naphthyl)-6,8-dihydro-5H-pyrido[3,4-d]pyrimidin-4-yl]-1-prop-2-enoyl-piperazin-2-yl]acetonitrile] | 0.001 to 1 | –
C (“C”>50% POC) | C=CC(=O)N1CCN(c2nc(OC[C@@H]3CCCN3C)nc3c2CCN(c2c(C)ccc4[nH]ncc24)C3)CC1 [Example 155, (S)-1-(4-(7-(5-methyl-1H-indazol-4-yl)-2-((1-methylpyrrolidin-2-yl)methoxy)-5,6,7,8-tetrahydropyrido[3,4-d]pyrimidin-4-yl)piperazin-1-yl)prop-2-en-1-one] | 0.001 to 1 | –
C (“C”>50% POC) | C=CC(=O)N1CCN(c2nc(OCCCO)nc3c2CCN(c2cccc4ccccc24)C3)CC1CC#N (stereo not shown) [Example 231, 2-(1-acryloyl-4-(2-(3-hydroxypropoxy)-7-(naphthalen-1-yl)-5,6,7,8-tetrahydropyrido[3,4-d]pyrimidin-4-yl)piperazin-2-yl)acetonitrile] | 0.001 to 1 | –
C (“C”>50% POC) | C=CC(=O)N1CCN(c2nc(OC[C@@H]3CCCN3C)nc3c2CCN(c2c(C)c(O)cc4ccccc24)C3)CC1 [Example 175, (S)-1-(4-(7-(3-hydroxy-2-methylnaphthalen-1-yl)-2-((1-methylpyrrolidin-2-yl)methoxy)-5,6,7,8-tetrahydropyrido[3,4-d]pyrimidin-4-yl)piperazin-1-yl)prop-2-en-1-one] | 0.001 to 1 | –
C (“C”>50% POC) | C=CC(=O)N1CCN(c2nc(OC[C@@H]3CCCN3C)nc3c2CCN(c2cccc4ccc(C)cc24)C3)CC1CC#N (stereo partly drawn) [Example 245, 2-[4-[7-(7-methyl-1-naphthyl)-2-[[(2S)-1-methylpyrrolidin-2-yl]methoxy]-6,8-dihydro-5H-pyrido[3,4-d]pyrimidin-4-yl]-1-prop-2-enoyl-piperazin-2-yl]acetonitrile] | 0.001 to 1 | –
C (“C”>50% POC) | C=CC(=O)N1CCN(c2nc(OC[C@@H]3CCCN3C)nc3c2CCN(c2cc(O)cc4ccccc24)C3)CC1CC#N (stereo partly drawn) [Example 182, 2-[4-[7-(3-hydroxy-1-naphthyl)-2-[[(2S)-1-methylpyrrolidin-2-yl]methoxy]-6,8-dihydro-5H-pyrido[3,4-d]pyrimidin-4-yl]-1-prop-2-enoyl-piperazin-2-yl]acetonitrile] | 0.001 to 1 | –
C (“C”>50% POC) | C=CC(=O)N1CCN(c2nc(OC[C@@H]3C[C@@H](F)CN3C)nc3c2CCN(c2cccc4ccccc24)C3)CC1CC#N (stereo partly drawn) [Example 220, 2-(1-acryloyl-4-(2-(((2S,4R)-4-fluoro-1-methylpyrrolidin-2-yl)methoxy)-7-(naphthalen-1-yl)-5,6,7,8-tetrahydropyrido[3,4-d]pyrimidin-4-yl)piperazin-2-yl)acetonitrile] | 0.001 to 1 | –
C (“C”>50% POC) | C=CC(=O)N1CCN(c2nc(O[C@H](C)CN(C)CC)nc3c2CCN(c2cc(O)cc4ccccc24)C3)CC1 [Example 131, 1-[4-[2-[(1R)-2-[ethyl(methyl)amino]-1-methyl-ethoxy]-7-(3-hydroxy-1-naphthyl)-6,8-dihydro-5H-pyrido[3,4-d]pyrimidin-4-yl]piperazin-1-yl]prop-2-en-1-one] | 0.001 to 1 | –
C (“C”>50% POC) | C=CC(=O)N1CCN(c2nc(OC[C@@H]3CCCN3C)nc3c2CCN(c2c(C)ccc4[nH]ncc24)C3)CC1CC#N (stereo partly drawn) [Example 148, 2-[4-[7-(5-methyl-1H-indazol-4-yl)-2-[[(2S)-1-methylpyrrolidin-2-yl]methoxy]-6,8-dihydro-5H-pyrido[3,4-d]pyrimidin-4-yl]-1-prop-2-enoyl-piperazin-2-yl]acetonitrile] | 0.001 to 1 | –
C (“C”>50% POC) | C=CC(=O)N1CCN(c2nc(OCCCN3CCOCC3)nc3c2CCN(c2c(C(F)(F)F)ccc4[nH]ncc24)C3)CC1 [Example 180, 1-[4-[2-(3-morpholinopropoxy)-7-[5-(trifluoromethyl)-1H-indazol-4-yl]-6,8-dihydro-5H-pyrido[3,4-d]pyrimidin-4-yl]piperazin-1-yl]prop-2-en-1-one] | 0.001 to 1 | –
C (“C”>50% POC) | C=CC(=O)N1CCN(c2nc(OC[C@@H]3CCCN3C)nc3c2CCN(c2c(F)c(O)cc4ccccc24)C3)CC1 [Example 249, 1-[4-[7-(2-fluoro-3-hydroxy-1-naphthyl)-2-[[(2S)-1-methylpyrrolidin-2-yl]methoxy]-6,8-dihydro-5H-pyrido[3,4-d]pyrimidin-4-yl]piperazin-1-yl]prop-2-en-1-one] | 0.001 to 1 | –

Structure (SMILES) | POC (normalized percent of control, KRas G12C modification) [2] | IC50 [1, 3] [µM] | IC50 ([1]; NCI-H358, 3 h) [µM]
C=CC(=O)N1CCN(c2nc(OC[C@H]3CCCN3C)nc3c2CCN(c2cccc4ccccc24)C3)CC1CC#N (stereo partly drawn) [Example 183, 2-[4-[2-[[(2R)-1-methylpyrrolidin-2-yl]methoxy]-7-(1-naphthyl)-6,8-dihydro-5H-pyrido[3,4-d]pyrimidin-4-yl]-1-prop-2-enoyl-piperazin-2-yl]acetonitrile] | C (“C”>50% POC) | – | 0.001 to 1
CC#CC(=O)N1CCN(c2nc(OC[C@@H]3CCCN3C)nc3c2CCN(c2cccc4ccccc24)C3)CC1CC#N (stereo partly drawn) [Example 242, 2-(1-(but-2-ynoyl)-4-(2-(((S)-1-methylpyrrolidin-2-yl)methoxy)-7-(naphthalen-1-yl)-5,6,7,8-tetrahydropyrido[3,4-d]pyrimidin-4-yl)piperazin-2-yl)acetonitrile] | C (“C”>50% POC) | – | 0.001 to 1
C=CC(=O)N1CCN(c2nc(OC[C@@H]3CCCN3C)nc3c2CCN(c2cccc4ccccc24)C3)CC1CC#N (stereo partly drawn) [Example 147, 2-[4-[2-[[(2S)-1-methylpyrrolidin-2-yl]methoxy]-7-(1-naphthyl)-6,8-dihydro-5H-pyrido[3,4-d]pyrimidin-4-yl]-1-prop-2-enoyl-piperazin-2-yl]acetonitrile] | C (“C”>50% POC) | – | 0.001 to 1
C=CC(=O)N1CCN(c2nc(OC[C@]3(C)CCCN3C)nc3c2CCN(c2cccc4ccccc24)C3)CC1CC#N (stereo partly drawn) [Example 251, 2-(1-acryloyl-4-(2-(((S)-1,2-dimethylpyrrolidin-2-yl)methoxy)-7-(naphthalen-1-yl)-5,6,7,8-tetrahydropyrido[3,4-d]pyrimidin-4-yl)piperazin-2-yl)acetonitrile] | C (“C”>50% POC) | 0.001 to 1 | –
C=CC(=O)N1CCN(c2nc(OC[C@H]3CCCN3C)nc3c2CCN(c2cccc4ccccc24)C3)C[C@@H]1CC#N [Example 267, 2-((S)-1-acryloyl-4-(2-(((R)-1-methylpyrrolidin-2-yl)methoxy)-7-(naphthalen-1-yl)-5,6,7,8-tetrahydropyrido[3,4-d]pyrimidin-4-yl)piperazin-2-yl)acetonitrile] | C (“C”>50% POC) | – | 0.001 to 1
C=CC(=O)N1CCN(c2nc(OC[C@@H]3CCCN3C)nc3c2CCN(c2cccc4ccccc24)C3)C[C@@H]1CC#N [Example 234, 2-((S)-1-acryloyl-4-(2-(((S)-1-methylpyrrolidin-2-yl)methoxy)-7-(naphthalen-1-yl)-5,6,7,8-tetrahydropyrido[3,4-d]pyrimidin-4-yl)piperazin-2-yl)acetonitrile] | C (“C”>50% POC) | – | 0.001 to 1
